{
  "source": "patent US10940110B2",
  "about": "“Method and system for the treatment of chronic COPD with nebulized anticholinergic administrations” (Sunovion Respiratory Development Inc., priority 2008, dated 2021)",
  "test_system": "patients with COPD",
  "conditions": "200 μg",
  "key": {"[1]": {"conditions": "high efficiency nebulizer, 24 hour time point"}},
  "method": "GIS 200 μg/0.5 mL oral inhalation via eFlow.\nGIS 75 μg/0.5 mL oral inhalation via eFlow; 2. GIS 500 μg/0.5 mL oral; 3. GIS 1000 n/0.5 mL oral inhalation via eFlow.\nThe primary efficacy variable was serial spirometry throughout the 36 hour period after dosing. The spirometry assessments include forced expiratory volume in one second (FEV1), forced vital capacity (FVC), peak expiratory flow rate (PEFR), FEV1% of predicted normal.",
  "data": [
    {"smiles": "C[N+]1(C)CCC(OC(=O)C(O)(c2ccccc2)C2CCCC2)C1", "note": "(centres unmarked) [glycopyrrolate, 3-[(cyclopentylhydroxyphenylacetyl)oxy]-1,1-dimethylpyrrolidinium]", "values": [
      {"measurement": "increase in FEV1 above baseline (% change from baseline)", "setting": "conventional jet nebulizer, 12 hr time point and beyond", "result": "≤ 10", "unit": "%"},
      {"measurement": "increase in FEV1 above baseline", "setting": "conventional jet nebulizer, any time point after 12 hr", "result": "≤ 100", "unit": "mL"},
      {"measurement": "mean improvement in peak lung function (peak FEV1) compared to the same dose in the conventional jet nebulizer", "setting": "high efficiency nebulizer vs conventional jet nebulizer", "result": "about 45 mL"},
      {"measurement": "improvement in FEV1 above baseline (% change from baseline)", "setting": "[1]", "result": "greater than 10%"},
      {"measurement": "improvement in lung function, FEV1 above baseline", "setting": "[1]", "result": "greater than 100 mL"}
    ]}
  ]
}
